Literature values, collected in publication PMC4907212, “Mucosal and blood-brain barrier transport kinetics of the plant N-alkylamide spilanthol using in vitro and in vivo models” (BMC Complementary and Alternative Medicine, 2016).

Parameters: method as in PMID 19399718
Details: plasma, oral gavage in rats; cited from earlier work

Question: Which elimination half-life does the source give for “dodeca-2E,4E,8E,10E/Z-tetraenoic acid isobutylamides” here?
Answer: 1.2 h
